Results: patent US10160766B1, “Benzopyranyl tetracycle compound and pharmaceutical composition having excellent anti-inflammatory effect comprising the same” (Spark Biopharma, Inc., priority 2017, dated 2018)

What was measured:
Format in all cases: cell-based
[1] = tested on: NO release in Raw264.7 cells; assay: Griess assay, inhibition of nitric oxide release; details: for NO Inhibition rate (%): 100 ng/mL LPS and compounds 24 hours, compared with control group; for inhibitory effect on NO release, in words, compared with Compound 1d: 100 ng/mL LPS, 24 hours
Protocol: Thus, the Griess assay was used to measure nitric oxide secretion for inflammation inhibition in Raw264.7 cells.
Raw 264.7 macrophage cell was cultured in Dulbecco Modified Eagle Medium (DMEM) with 10% (v/v) fetal bovine serum (FBS) and 1% (v/v) antibiotic-anti mycotic solution.
Cell was maintained in a 100 mm cell culture dish under cell culture conditions (5% CO2 incubator at 37° C. with humidified atmosphere).
Griess assay reagent was generated prior to the assay with the following contents listed below: N-(1-naphthyl) ethylenediamine dihydrochloride, 0.1% (m/v); sulfanilamide, 1% (m/v); phosphoric acid (85%); 5% (v/v) in deionized water.
Raw 264.7 cell was seeded in transparent 96-well plate and maintained for 1 day. Media was aspirated, and each well was washed with serum free DMEM for twice. Each well was refilled with serum-free DMEM.
Then 100 ng/mL LPS and compounds were treated afterward and cultured for 24 hours. After the incubation, the supernatant culture media was transferred to new 96-well plate and mixed with 50 μL of Griess assay reagent.
Media-reagent mixture was incubated at room temperature for several minutes. Absorbance was read at 548 nm. Four wells each were used for the control experiment, LPS and DMSO (without any compounds) treated well, and DMSO-only treated well. Blank values were measured.
Blank values were measured by mixing 50 μL of Griess assay reagent with […] and 1% antibiotic-antimycotic containing DMEM.
As for the compounds in which the double bond of the tetrahydropyridazine ring in Compound 1d is moved or eliminated, the inhibition rate of NO release was measured in the same manner as in Test Example 2.
The inhibition rate of NO release for Compounds 2a to 2o prepared in Example 2 was tested in order to confirm the anti-inflammatory effect for the above compounds.

Raw 264.7 cell = assay: WST (water-soluble tetrazolium) analysis, relative cell viability; details: 100 ng/mL LPS and compounds 24 hours
Protocol: Relative cell viability of Compound 2a to 2o prepared in Examples 2 was measured by WST (water-soluble tetrazolium) analysis.
Raw 264.7 cell was seeded in transparent 96-well plate and maintained for 1 day.
Media was aspirated, and each well was washed with serum free DMEM for twice. Each well was refilled with serum-free DMEM. Then, 100 ng/mL LPS and compounds were treated afterward and cultured for 24 hours. After the incubation, the supernatant culture media was transferred to new 96-well plate.
Immediately after transferring media, cell-seeded wells were refilled with 100 μL of 10% FBS and 1% antibiotic-antimycotic containing DMEM. Then, 10 μL of Ez-cytox WST assay reagent was used to treat each well, following the manufacturer's protocol.
After incubating for 20 min in a 5% CO2 incubator at 37° C. with humidified atmosphere, absorbance was read at 450 nm.
Blank values were obtained from the well only treated with 10% FBS and 1% antibiotic-antimycotic containing DMEM.

[2] = tested on: TNF-α secretion in Raw264.7 cell; assay: ELISA of secreted TNF-α; details: Mus musculus, LPS 100 ng/mL, compounds 10 μM, read-out: TNF-α Inhibition Rate (%)
Protocol: Thus, in order to additionally confirm the inflammation inhibitory effects of Compounds 2f to 2l, the inhibition rate of TNF-α secretion was quantitatively measured by ELISA.
Cells were treated with each Compound 1d, or 2f to 2l, and LPS for 24 hours, followed by ELISA for TNF-α present in the culture solution.
In order to measure the amount of secreted TNF-α, Raw264.7 cell was seeded in transparent 96-well plate and maintained for 1 day. Media was aspirated after 1 day and replaced to serum-free DMEM with 1% (v/v) antibiotic-antimycotic solution. LPS and compounds were treated in a final concentration of 100 ng/mL and 10 μM.
Standard curve was plotted by the dose-dependent treatment of the control TNF-α protein provided with the ELISA kit. Blank value was measured by adding solutions without TNF-α substrate.
The TNF-α secretion inhibition rate of Compounds 1d, and 2f to 2l was confirmed, when compared with control groups.

Structure (SMILES)	NO Inhibition rate (%) [1]	Relative Cell Viability (%) (Raw 264.7 cell)	inhibition at 10 µM [2]	inhibitory effect on NO release, in words, compared with Compound 1d [1]
CNc1ccc2c(c1)OC(C)(C)C1=CCn3c(=O)n(-c4ccccc4)c(=O)n3C12 (stereo not shown) [Compound 1b]	52%	–	–	–
CC1(C)Oc2cc(F)ccc2C2C1=CCn1c(=O)n(-c3ccccc3)c(=O)n12 (stereo not shown) [Compound 1c]	79%	–	–	–
COc1ccccc1-n1c(=O)n2n(c1=O)C1C(=CC2)C(C)(C)Oc2cc(O)ccc21 (stereo not shown) [Compound 2e]	–	115%	–	–
CC1(C)Oc2cc(O)ccc2C2C1=CCn1c(=O)n(-c3ccc(F)cc3)c(=O)n12 (stereo not shown) [Compound 2h]	87%	109%	44%	–
CC1(C)Oc2cc(O)ccc2C2C1=CCn1c(=O)n(C3CCCCC3)c(=O)n12 (stereo not shown) [Compound 2c]	63%	117%	–	–
CC1(C)Oc2cc(O)ccc2C2C1=CCn1c(=O)n(Cc3ccccc3)c(=O)n12 (stereo not shown) [Compound 2b]	70%	106%	–	–
CC1(C)Oc2ccccc2C2C1=CCn1c(=O)n(-c3ccccc3)c(=O)n12 (stereo not shown) [Compound 1a]	83%	–	–	–
COc1cc2c(cc1OC)C1C(=CCn3c(=O)n(-c4ccccc4)c(=O)n31)C(C)(C)O2 (stereo not shown) [Compound 1g]	44%	–	–	–
CC1(C)Oc2cc(O)ccc2C2C1=CCn1c(=O)n(-c3ccc(C(F)(F)F)cc3)c(=O)n12 (stereo not shown) [Compound 2m]	85%	106%	–	–
CC(=O)N1CCC2(CC1)Oc1cc(O)ccc1C1C2=CCn2c(=O)n(-c3ccccc3)c(=O)n21 (stereo not shown) [Compound 1j]	36%	–	–	significantly reduced
Cc1ccc(-n2c(=O)n3n(c2=O)C2C(=CC3)C(C)(C)Oc3cc(O)ccc32)cc1 (stereo not shown) [Compound 2i]	94%	130%	45%	–
CC1(C)Oc2cc(O)ccc2C2C1=CCn1c(=O)n(-c3ccccc3I)c(=O)n12 (stereo not shown) [Compound 2d]	–	109%	–	–
CCCCc1ccc(-n2c(=O)n3n(c2=O)C2C(=CC3)C(C)(C)Oc3cc(O)ccc32)cc1 (stereo not shown) [Compound 2o]	99%	50%	–	–
CC1(C)Oc2cc(O)ccc2C2C1=CCn1c(=O)n(-c3ccc4c(c3)OCO4)c(=O)n12 (stereo not shown) [Compound 2k]	92%	121%	46%	–
Cn1c(=O)n2n(c1=O)C1C(=CC2)C(C)(C)Oc2cc(O)ccc21 (stereo not shown) [Compound 2a]	45%	114%	–	–
COc1ccc2c(c1O)OC(C)(C)C1=CCn3c(=O)n(-c4ccccc4)c(=O)n3C12 (stereo not shown) [Compound 1h]	26%	–	–	–
COc1ccc2c(c1)OC(C)(C)C1=CCn3c(=O)n(-c4ccccc4)c(=O)n3C12 (stereo not shown) [Compound 1e]	44%	–	–	–
COc1ccc2c(c1)C1C(=CCn3c(=O)n(-c4ccccc4)c(=O)n31)C(C)(C)O2 (stereo not shown) [Compound 1f]	55%	–	–	–
CCCN1CCC2(CC1)Oc1cc(O)ccc1C1C2=CCn2c(=O)n(-c3ccccc3)c(=O)n21 (stereo not shown) [Compound 1i]	47%	–	–	significantly reduced
CC1(C)Oc2cc(O)ccc2C2C1=CCn1c(=O)n(-c3ccc(C(C)(C)C)cc3)c(=O)n12 (stereo not shown) [Compound 2n]	99%	105%	–	–
COc1ccc(-n2c(=O)n3n(c2=O)C2C(=CC3)C(C)(C)Oc3cc(O)ccc32)cc1 (stereo not shown) [Compound 2g]	89%	127%	44%	–
COc1cccc(-n2c(=O)n3n(c2=O)C2C(=CC3)C(C)(C)Oc3cc(O)ccc32)c1 (stereo not shown) [Compound 2f]	96%	118%	38%	–
